Measurements: PubChem BioAssay AID2060902 (Molecular Pharmacology Branch, DTP, NCI, 2025)

Test system: 485368-065-R3-J5-PDC spheroids with HUVEC/MSC, viability
Assay: Anticancer human tumor 485368-065-R3-J5-PDC patient-derived pancreatic carcinoma cell line growth inhibition [RAS]
Conditions: for IC50: curve of first compound; for viability, T/C: stronger effect = lower value
Summary of the method: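 Multi-cell-type spheroids: tumor cells plus HUVEC endothelial cells and mesenchymal stem cells. RAS-pathway inhibitors were combined with targeted agents, each dosed in half-log steps down from clinical Cmax, or from 10 microM when Cmax was unknown.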

[1] = second compound 0.000949 µM, first compound 0.00316 µM
[2] = second compound 0.000949 µM, first compound 0.01 µM
[3] = second compound 0.000949 µM, first compound 0.0316 µM
[4] = second compound 0.000949 µM, first compound 0.1 µM
[5] = second compound 0.003 µM, first compound 0.00316 µM
[6] = second compound 0.003 µM, first compound 0.01 µM
[7] = second compound 0.003 µM, first compound 0.0316 µM
[8] = second compound 0.003 µM, first compound 0.1 µM
[9] = second compound 0.00949 µM, first compound 0.00316 µM
[10] = second compound 0.00949 µM, first compound 0.01 µM
[11] = second compound 0.00949 µM, first compound 0.0316 µM
[12] = second compound 0.00949 µM, first compound 0.1 µM
[13] = second compound 0.03 µM, first compound 0.00316 µM
[14] = second compound 0.03 µM, first compound 0.01 µM
[15] = second compound 0.03 µM, first compound 0.0316 µM
[16] = second compound 0.03 µM, first compound 0.1 µM
[17] = second compound 0.0949 µM, first compound 0.00316 µM
[18] = second compound 0.0949 µM, first compound 0.01 µM
[19] = second compound 0.0949 µM, first compound 0.0316 µM
[20] = second compound 0.0949 µM, first compound 0.1 µM
[21] = second compound 0.3 µM, first compound 0.00316 µM
[22] = second compound 0.3 µM, first compound 0.01 µM
[23] = second compound 0.3 µM, first compound 0.0316 µM
[24] = second compound 0.3 µM, first compound 0.1 µM
[25] = second compound 0.000949 µM, first compound 0.316 µM
[26] = second compound 0.000949 µM, first compound 1 µM
[27] = second compound 0.000949 µM, first compound 3.16 µM
[28] = second compound 0.000949 µM, first compound 10 µM
[29] = second compound 0.003 µM, first compound 0.316 µM
[30] = second compound 0.003 µM, first compound 1 µM
[31] = second compound 0.003 µM, first compound 3.16 µM
[32] = second compound 0.003 µM, first compound 10 µM
[33] = second compound 0.00949 µM, first compound 0.316 µM
[34] = second compound 0.00949 µM, first compound 1 µM
[35] = second compound 0.00949 µM, first compound 3.16 µM
[36] = second compound 0.00949 µM, first compound 10 µM
[37] = second compound 0.03 µM, first compound 0.316 µM
[38] = second compound 0.03 µM, first compound 1 µM
[39] = second compound 0.03 µM, first compound 3.16 µM
[40] = second compound 0.03 µM, first compound 10 µM
[41] = second compound 0.0949 µM, first compound 0.316 µM
[42] = second compound 0.0949 µM, first compound 1 µM
[43] = second compound 0.0949 µM, first compound 3.16 µM
[44] = second compound 0.0949 µM, first compound 10 µM
[45] = second compound 0.3 µM, first compound 0.316 µM
[46] = second compound 0.3 µM, first compound 1 µM
[47] = second compound 0.3 µM, first compound 3.16 µM
[48] = second compound 0.3 µM, first compound 10 µM
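Further: spheroids exposed to agents for seven days before readout.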

CC(C)n1nc(-c2ccc3oc(N)nc3c2)c2c(N)ncnc21 + CCn1c(-c2cc(N3CCN(C)CC3)cnc2C(C)OC)c2c3cc(ccc31)-c1csc(n1)CC(NC(=O)C1CC1C)C(=O)N1CCCC(N1)C(=O)OCC(C)(C)C2
IC50 (second compound 0.000949 µM): < 0.316 nM | IC50 (second compound 0.003 µM): < 0.316 nM | IC50 (second compound 0.00949 µM): < 0.316 nM | IC50 (second compound 0.03 µM): < 0.316 nM | IC50 (second compound 0.0949 µM): < 0.316 nM | IC50 (second compound 0.3 µM): < 0.316 nM | viability, T/C (second compound 0.000949 µM, first compound 0.000316 µM): 37.1% | viability, T/C (second compound 0.000949 µM, first compound 0.001 µM): 33.2% | viability, T/C [1]: 25.4% | viability, T/C [2]: 25.5% | viability, T/C [3]: 16.9% | viability, T/C [4]: 14.4% | viability, T/C (second compound 0.003 µM, first compound 0.000316 µM): 23.3% | viability, T/C (second compound 0.003 µM, first compound 0.001 µM): 20.4% | viability, T/C [5]: 18.3% | viability, T/C [6]: 15.1% | viability, T/C [7]: 11.4% | viability, T/C [8]: 8.13% | viability, T/C (second compound 0.00949 µM, first compound 0.000316 µM): 19.9% | viability, T/C (second compound 0.00949 µM, first compound 0.001 µM): 17.6% | viability, T/C [9]: 15.4% | viability, T/C [10]: 11.2% | viability, T/C [11]: 7.74% | viability, T/C [12]: 7.71% | viability, T/C (second compound 0.03 µM, first compound 0.000316 µM): 13.6% | viability, T/C (second compound 0.03 µM, first compound 0.001 µM): 12.3% | viability, T/C [13]: 11.5% | viability, T/C [14]: 10.1% | viability, T/C [15]: 8.37% | viability, T/C [16]: 6.86% | viability, T/C (second compound 0.0949 µM, first compound 0.000316 µM): 9.34% | viability, T/C (second compound 0.0949 µM, first compound 0.001 µM): 9.41% | viability, T/C [17]: 9.4% | viability, T/C [18]: 8.96% | viability, T/C [19]: 8.01% | viability, T/C [20]: 7.66% | viability, T/C (second compound 0.3 µM, first compound 0.000316 µM): 8.85% | viability, T/C (second compound 0.3 µM, first compound 0.001 µM): 9.23% | viability, T/C [21]: 9.13% | viability, T/C [22]: 7.72% | viability, T/C [23]: 8.58% | viability, T/C [24]: 6.19%

CC1(O)CCCC1n1c(=O)c(C(F)F)cc2cnc(NC3CCN(S(C)(=O)=O)CC3)nc21 (stereo not drawn) + CCn1c(-c2cc(N3CCN(C)CC3)cnc2C(C)OC)c2c3cc(ccc31)-c1csc(n1)CC(NC(=O)C1CC1C)C(=O)N1CCCC(N1)C(=O)OCC(C)(C)C2
IC50 (second compound 0.000949 µM): < 31.6 nM | IC50 (second compound 0.003 µM): < 31.6 nM | IC50 (second compound 0.00949 µM): < 31.6 nM | IC50 (second compound 0.03 µM): < 31.6 nM | IC50 (second compound 0.0949 µM): < 31.6 nM | IC50 (second compound 0.3 µM): < 31.6 nM | viability, T/C [3]: 32.3% | viability, T/C [4]: 24.5% | viability, T/C [25]: 18.9% | viability, T/C [26]: 21.9% | viability, T/C [27]: 27.9% | viability, T/C [28]: 14% | viability, T/C [7]: 18.5% | viability, T/C [8]: 15.5% | viability, T/C [29]: 13.4% | viability, T/C [30]: 11.9% | viability, T/C [31]: 14.7% | viability, T/C [32]: 9.44% | viability, T/C [11]: 14.6% | viability, T/C [12]: 12.9% | viability, T/C [33]: 11.6% | viability, T/C [34]: 10.3% | viability, T/C [35]: 11% | viability, T/C [36]: 8.01% | viability, T/C [15]: 11.8% | viability, T/C [16]: 9.04% | viability, T/C [37]: 9.94% | viability, T/C [38]: 9.99% | viability, T/C [39]: 9.98% | viability, T/C [40]: 8.86% | viability, T/C [19]: 7.96% | viability, T/C [20]: 8.33% | viability, T/C [41]: 7.56% | viability, T/C [42]: 9.28% | viability, T/C [43]: 11.6% | viability, T/C [44]: 8.42% | viability, T/C [23]: 7.72% | viability, T/C [24]: 7.59% | viability, T/C [45]: 7.36% | viability, T/C [46]: 7.64% | viability, T/C [47]: 9.08% | viability, T/C [48]: 7.54%

CCN1CCN(Cc2ccc(Nc3ncc(F)c(-c4cc(F)c5nc(C)n(C(C)C)c5c4)n3)nc2)CC1 + CCn1c(-c2cc(N3CCN(C)CC3)cnc2C(C)OC)c2c3cc(ccc31)-c1csc(n1)CC(NC(=O)C1CC1C)C(=O)N1CCCC(N1)C(=O)OCC(C)(C)C2
IC50 (second compound 0.000949 µM): < 3.16 nM | IC50 (second compound 0.003 µM): < 3.16 nM | IC50 (second compound 0.00949 µM): < 3.16 nM | IC50 (second compound 0.03 µM): < 3.16 nM | IC50 (second compound 0.0949 µM): < 3.16 nM | IC50 (second compound 0.3 µM): < 3.16 nM | viability, T/C [1]: 31.4% | viability, T/C [2]: 27.4% | viability, T/C [3]: 31.6% | viability, T/C [4]: 22.1% | viability, T/C [25]: 28.7% | viability, T/C [26]: 27.1% | viability, T/C [5]: 22.1% | viability, T/C [6]: 21.1% | viability, T/C [7]: 16.8% | viability, T/C [8]: 15.4% | viability, T/C [29]: 18.4% | viability, T/C [30]: 22.4% | viability, T/C [9]: 16.1% | viability, T/C [10]: 16.4% | viability, T/C [11]: 11% | viability, T/C [12]: 15.1% | viability, T/C [33]: 14.2% | viability, T/C [34]: 18.3% | viability, T/C [13]: 11.1% | viability, T/C [14]: 11.8% | viability, T/C [15]: 9.68% | viability, T/C [16]: 13.2% | viability, T/C [37]: 13.1% | viability, T/C [38]: 16.5% | viability, T/C [17]: 8.73% | viability, T/C [18]: 10.7% | viability, T/C [19]: 9.07% | viability, T/C [20]: 8.91% | viability, T/C [41]: 12.2% | viability, T/C [42]: 15.6% | viability, T/C [21]: 8.74% | viability, T/C [22]: 8.83% | viability, T/C [23]: 7.48% | viability, T/C [24]: 9.84% | viability, T/C [45]: 10.8% | viability, T/C [46]: 15.2%

C[C@@H](NC(=O)c1ncnc(N)c1Cl)c1ncc(C(=O)Nc2cc(C(F)(F)F)c(Cl)cn2)s1 + CCn1c(-c2cc(N3CCN(C)CC3)cnc2C(C)OC)c2c3cc(ccc31)-c1csc(n1)CC(NC(=O)C1CC1C)C(=O)N1CCCC(N1)C(=O)OCC(C)(C)C2
IC50 (second compound 0.000949 µM): 31.6 nM | IC50 (second compound 0.003 µM): < 31.6 nM | IC50 (second compound 0.00949 µM): < 31.6 nM | IC50 (second compound 0.03 µM): < 31.6 nM | IC50 (second compound 0.0949 µM): < 31.6 nM | IC50 (second compound 0.3 µM): < 31.6 nM | viability, T/C [3]: 41.3% | viability, T/C [4]: 46.5% | viability, T/C [25]: 55% | viability, T/C [26]: 51.5% | viability, T/C [27]: 45.7% | viability, T/C [28]: 38% | viability, T/C [7]: 22.9% | viability, T/C [8]: 24.4% | viability, T/C [29]: 26.9% | viability, T/C [30]: 28.8% | viability, T/C [31]: 24.8% | viability, T/C [32]: 24.8% | viability, T/C [11]: 15.6% | viability, T/C [12]: 16.8% | viability, T/C [33]: 17.4% | viability, T/C [34]: 18.4% | viability, T/C [35]: 18.9% | viability, T/C [36]: 18.6% | viability, T/C [15]: 14% | viability, T/C [16]: 14.2% | viability, T/C [37]: 16.5% | viability, T/C [38]: 16.2% | viability, T/C [39]: 15.4% | viability, T/C [40]: 12.7% | viability, T/C [19]: 10% | viability, T/C [20]: 11% | viability, T/C [41]: 10.4% | viability, T/C [42]: 11.8% | viability, T/C [43]: 16.1% | viability, T/C [44]: 10.8% | viability, T/C [23]: 9.44% | viability, T/C [24]: 10.4% | viability, T/C [45]: 11.2% | viability, T/C [46]: 11% | viability, T/C [47]: 13.1% | viability, T/C [48]: 11.4%
